In assay [1] the target is T1, ΔF508-CFTR (Homo sapiens, UniProt P13569, DEL508-508).
T1 construct: Primary lung epithelial cells homozygous for the Cystic Fibrosis-causing ΔF508 mutation; endogenous in cells; host or cells: primary human lung (bronchial) epithelial cells homozygous for ΔF508, differentiated at air-liquid interface
The assay can be described thus: hBE equivalent current (Ieq) assay. Type of assay: cell-based. The conditions noted are these: AUC of equivalent chloride current, primary hBE homozygous ΔF508, 24 h treatment. As for the experimental part: Primary lung epithelial cells homozygous for the Cystic Fibrosis-causing ΔF508 mutation were differentiated for a minimum of 4 weeks in an air-liquid interface on Costar 24 well HTS filter plates prior to the equivalent current (Ieq) measurements. Cells were apically mucus-washed for 30 minutes 24 h prior to treatment with compounds. The basolateral media was removed and replaced with media containing the compound of interest diluted to its final concentration from DMSO stocks. Treated cells were incubated at 37° C. and 5% CO2 for 24 hours. At the end of the treatment period, the media was changed to the Ieq experimental solution for 30 minutes before the experiment and plates are maintained in a CO2-free incubator during this period. The plates containing the cells were then placed in pre-warmed heating blocks at 36° C.±0.5 for 15 minutes before measurements are taken. The transepithelial voltage (VT) and conductance (GT) were measured using a custom 24 channel current clamp (TECC-24) with 24 well electrode manifold. The Ieq assay measurements were made following additions with standardized time periods: • 1. The baseline VT and GT values were measured for approximately 20 minutes. • 2. Benzamil was added to block ENaC for 15 minutes. • 3. Forskolin plus VX-770 were added to maximally activate ΔF508-CFTR for 27 minutes. • 4. Bumetanide was added to inhibit the NaK2Cl cotransporter and shut-off secretion of chloride.
The activity data captured was the area under the curve (AUC) for the traces of the equivalent chloride current. The AUC was collected from the time of the forskolin/VX-770 addition until the inhibition by bumetanide addition. Correction in response to compound treatment was scored as the increase in the AUC for compound-treated samples over that of vehicle-treated samples. The results are shown below in Table 2 (++indicates activity ≧25% run at 10 uM of VX-809 at 1 uM; +indicates activity 10 to <25% run at 10 uM of VX-809 at 1 uM; ** indicates activity ≧200% of VX-809 (1 uM) with compound at 10 uM and VX-809 at 1 uM; * indicates activity 100-200% of VX-809 (1 uM) with compound at 10 uM and VX-809 at 1 uM)

In assay [2] the target is T1, ΔF508-CFTR. Nature of the assay: Ussing measurements. Type of assay: cell-based. Particulars: CFTRinh-172 inhibitable short-circuit current, primary hBE homozygous ΔF508, 24 h treatment. As for the experimental part:
As discussed above, Ussing measurements can be used to measure CFTR activity. In this method, primary lung epithelial cells (hBEs) homozygous for the Cystic Fibrosis-causing ΔF508 mutation are differentiated for a minimum of 4 weeks in an air-liquid interface on SnapWell filter plates prior to the Ussing measurements. Cells are apically mucus-washed for 30 minutes prior to treatment with compounds. The basolateral media is removed and replaced with media containing the compound of interest diluted to its final concentration from DMSO stocks. Treated cells are incubated at 37° C. and 5% CO2 for 24 hours. At the end of the treatment period, the cells on filters are transferred to the Ussing chamber and equilibrated for 30 minutes. The short-circuit current is measured in voltage clamp-mode (Vhold=0 mV), and the entire assay is conducted at a temperature of 36° C.-36.5° C. Once the voltages stabilized, the chambers are clamped, and data is recorded by pulse readings every 5 seconds. Following baseline current stabilization, the following additions can be applied and the changes in current and resistance of the cells can be monitored: • 1. Benzamil to the apical chamber to inhibit ENaC sodium channel. • 2. Forskolin to both chambers to activate ΔF508-CFTR by phosphorylation. • 3. Genistein to both chambers to potentiate ΔF508-CFTR channel opening. • 4. CFTRinh-172 to the apical chamber to inhibit ΔF508-CFTR Cl-conductance.
The inhibitable current (that current that is blocked by CFTRinh-172) is measured as the specific activity of the ΔF508-CFTR channel, and increases in response to compound in this activity over that observed in vehicle-treated samples are identified as the correction of ΔF508-CFTR function imparted by the compound tested.

Setting [3] is: compound at 10 uM together with VX-809 at 1 uM, relative to VX-809 (1 uM).
The mark [4] stands for this setting: compound alone at 10 uM, relative to VX-809 at 1 uM.

Consider 8 compounds from patent US9790219B2, “Compounds, compositions, and methods for increasing CFTR activity” (Proteostasis Therapeutics, Inc., priority 2014, dated 2017).

T1 sequence (P13569 with tags, fused parts or gaps DEL508-508): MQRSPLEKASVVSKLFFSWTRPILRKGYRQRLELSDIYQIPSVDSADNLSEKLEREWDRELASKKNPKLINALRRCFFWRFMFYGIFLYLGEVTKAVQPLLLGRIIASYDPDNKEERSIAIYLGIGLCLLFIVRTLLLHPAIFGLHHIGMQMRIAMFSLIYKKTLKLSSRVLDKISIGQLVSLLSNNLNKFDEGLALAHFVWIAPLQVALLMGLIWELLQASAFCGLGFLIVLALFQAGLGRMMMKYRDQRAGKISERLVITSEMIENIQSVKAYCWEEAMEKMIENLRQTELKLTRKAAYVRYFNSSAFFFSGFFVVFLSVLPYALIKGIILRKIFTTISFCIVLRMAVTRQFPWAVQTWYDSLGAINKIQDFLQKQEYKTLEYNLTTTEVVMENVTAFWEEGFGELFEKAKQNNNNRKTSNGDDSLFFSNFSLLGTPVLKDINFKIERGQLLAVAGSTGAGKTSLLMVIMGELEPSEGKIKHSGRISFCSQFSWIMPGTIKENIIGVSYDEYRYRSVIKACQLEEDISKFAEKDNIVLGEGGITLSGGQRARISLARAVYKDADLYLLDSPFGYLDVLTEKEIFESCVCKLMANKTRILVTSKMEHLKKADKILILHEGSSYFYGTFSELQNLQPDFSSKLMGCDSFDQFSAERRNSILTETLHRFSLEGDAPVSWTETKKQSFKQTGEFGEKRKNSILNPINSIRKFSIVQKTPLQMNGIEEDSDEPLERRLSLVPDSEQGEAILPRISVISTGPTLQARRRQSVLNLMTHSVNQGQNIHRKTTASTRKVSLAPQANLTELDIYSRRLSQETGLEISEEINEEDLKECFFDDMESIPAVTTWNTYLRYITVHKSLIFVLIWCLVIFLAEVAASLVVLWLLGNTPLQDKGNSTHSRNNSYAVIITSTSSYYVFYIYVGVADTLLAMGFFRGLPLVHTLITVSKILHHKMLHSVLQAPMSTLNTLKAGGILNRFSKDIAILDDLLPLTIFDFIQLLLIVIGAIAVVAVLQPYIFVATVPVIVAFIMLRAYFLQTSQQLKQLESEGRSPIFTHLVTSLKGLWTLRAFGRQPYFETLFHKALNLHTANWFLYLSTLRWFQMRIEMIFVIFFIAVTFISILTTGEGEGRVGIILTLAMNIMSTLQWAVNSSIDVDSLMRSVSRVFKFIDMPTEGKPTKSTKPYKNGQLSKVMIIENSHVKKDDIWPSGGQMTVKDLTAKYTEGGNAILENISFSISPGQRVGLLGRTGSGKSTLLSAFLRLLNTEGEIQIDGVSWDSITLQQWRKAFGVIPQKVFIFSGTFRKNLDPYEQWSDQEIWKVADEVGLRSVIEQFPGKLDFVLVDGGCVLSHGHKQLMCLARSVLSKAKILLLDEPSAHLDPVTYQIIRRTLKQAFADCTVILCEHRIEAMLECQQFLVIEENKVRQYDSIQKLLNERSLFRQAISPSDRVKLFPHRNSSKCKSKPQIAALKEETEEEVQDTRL

In the case of `O=C(NCCc1nnc([C@@H](O)CO)o1)c1cc(-c2ccccc2)on1` [Compound A22, (S)-N-(2-(5-(1,2-dihydroxyethyl)-1,3,4-oxadiazol-2-yl)ethyl)-5-phenyl isoxazole-3-carboxamide carboxamide], in assay [1] (setting [3]), the “Ieq Activity” value is “** (** indicates activity ≧200% of VX-809 (1 uM) with compound at 10 uM and VX-809 at 1 uM)”. For the same compound, the Ussing entry in assay [2] (setting [3]) is “** (** indicates activity ≧200% of VX-809 (1 uM) with compound at 10 uM and VX-809 at 1 uM)”.

As to `O=C(NCCc1nnc([C@@H](O)CO)s1)c1cc(-c2ccccc2)on1` [Compound A21, (S)-N-(2-(5-(1,2-dihydroxyethyl)-1,3,4-thiadiazol-2-yl)ethyl)-5-phenyl isoxazole-3-carboxamide], in assay [1] (setting [3]), the “Ieq Activity” value is “** (** indicates activity ≧200% of VX-809 (1 uM) with compound at 10 uM and VX-809 at 1 uM)”. The Ussing entry in assay [2] (setting [3]) is “** (** indicates activity ≧200% of VX-809 (1 uM) with compound at 10 uM and VX-809 at 1 uM)”.

`C[C@H](O)c1nnc(CCNC(=O)c2cc(-c3ccccc3)on2)s1` [Compound A17, (S)-N-(2-(5-(1-hydroxyethyl)-1,3,4-thiadiazol-2-yl)ethyl)-5-phenylisoxazole-3-carboxamide]: the “Ieq Activity” value in assay [1] (setting [3]) was “** (** indicates activity ≧200% of VX-809 (1 uM) with compound at 10 uM and VX-809 at 1 uM)”. Moreover, the Ussing entry in assay [2] (setting [3]) is “** (** indicates activity ≧200% of VX-809 (1 uM) with compound at 10 uM and VX-809 at 1 uM)”.

Consider `O=C(NCCc1nnc(CO)s1)c1cc(-c2ccccc2)on1` [Compound A2, N-(2-(5-(hydroxymethyl)-1,3,4-thiadiazol-2-yl)ethyl)-5-phenylisoxazole-3-carboxamide], for which the “Ieq Activity” value in assay [1] (setting [4]) is “++ (++indicates activity ≧25% run at 10 uM of VX-809 at 1 uM)”; in assay [1] (setting [3]), “** (** indicates activity ≧200% of VX-809 (1 uM) with compound at 10 uM and VX-809 at 1 uM)”. Moreover, the Ussing result in assay [2] (setting [4]) is “++ (++indicates activity ≧25% run at 10 uM of VX-809 at 1 uM)”; in assay [2] (setting [3]) it was “** (** indicates activity ≧200% of VX-809 (1 uM) with compound at 10 uM and VX-809 at 1 uM)”.

Consider `C[C@H](O)c1nnc(CCNC(=O)c2cc(-c3ccccc3)on2)o1` [Compound A18, (S)-N-(2-(5-(1-hydroxyethyl)-1,3,4-oxadiazol-2-yl)ethyl)-5-phenylisoxazole-3-carboxamide], for which the “Ieq Activity” value in assay [1] (setting [3]) is “** (** indicates activity ≧200% of VX-809 (1 uM) with compound at 10 uM and VX-809 at 1 uM)”. For the same compound, the Ussing result in assay [2] (setting [3]) is “** (** indicates activity ≧200% of VX-809 (1 uM) with compound at 10 uM and VX-809 at 1 uM)”.

In the case of `O=C(NCCc1nnc([C@H](O)CO)s1)c1cc(-c2ccccc2)on1` [Compound A20, (R)-N-(2-(5-(1,2-dihydroxyethyl)-1,3,4-thiadiazol-2-yl)ethyl)-5-phenylisoxazole-3-carboxamide], the “Ieq Activity” value in assay [1] (setting [3]) is “** (** indicates activity ≧200% of VX-809 (1 uM) with compound at 10 uM and VX-809 at 1 uM)”. Moreover, in assay [2] (setting [3]), the Ussing entry is “** (** indicates activity ≧200% of VX-809 (1 uM) with compound at 10 uM and VX-809 at 1 uM)”.

Take `O=C(NCCc1nnc([C@H](O)CO)o1)c1cc(-c2ccccc2)on1` [Compound A19, (R)-N-(2-(5-(1,2-dihydroxyethyl)-1,3,4-oxadiazol-2-yl)ethyl)-5-phenylisoxazole-3-carboxamide]: the “Ieq Activity” value in assay [1] (setting [3]) is “** (** indicates activity ≧200% of VX-809 (1 uM) with compound at 10 uM and VX-809 at 1 uM)”. Also, in assay [2] (setting [3]), the Ussing entry is “** (** indicates activity ≧200% of VX-809 (1 uM) with compound at 10 uM and VX-809 at 1 uM)”.

Regarding `O=C(NCCc1nnc(CO)o1)c1cc(-c2ccccc2)on1` [Compound A1, N-(2-(5-(hydroxymethyl)-1,3,4-oxadiazol-2-yl)ethyl)-5-phenylisoxazole-3-carboxamide], the “Ieq Activity” value in assay [1] (setting [4]) is “++ (++indicates activity ≧25% run at 10 uM of VX-809 at 1 uM)”; in assay [1] (setting [3]), “** (** indicates activity ≧200% of VX-809 (1 uM) with compound at 10 uM and VX-809 at 1 uM)”. The Ussing result is “++ (++indicates activity ≧25% run at 10 uM of VX-809 at 1 uM)” in assay [2] (setting [4]); “** (** indicates activity ≧200% of VX-809 (1 uM) with compound at 10 uM and VX-809 at 1 uM)” in assay [2] (setting [3]).
